Source: patent publication US11104674B2 (Hoffmann-La Roche Inc., priority 2016, dated 2021)

How the values were obtained:
HBsAg = HBsAg assay (chemiluminescence immunoassay of secreted HBsAg); assay type: cell-based, HBV; settings: HepG2.2.15 cells, CLIA of culture supernatant
Procedure, shortened: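 HepG2.2.15 cells, in duplicate, treated with three-fold serial compound dilutions (1% DMSO final); secreted HBsAg in supernatant quantified by chemiluminescence immunoassay; IC50 is the concentration reducing HBsAg secretion by 50% versus the DMSO control.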

HBV DNA = HBV DNA assay (real-time qPCR of extracellular HBV DNA); assay type: cell-based; settings: Hepatitis B virus, 144 h; Anti HBV DNA production activity in HepG2.2.15 cells; supernatant collected six days after treatment
Protocol: HepG2.2.15 cells (Acs et al. Proc Natl Acad Sci USA, 84, (1987), 4641-4), a constitutively HBV-expressing cell line were cultured in DMEM+Glutamax-I medium (Invitrogen, Carlsbad, Calif., USA), supplemented with 10% fetal bovine serum (Invitrogen) and G418 (Invitrogen) at a final concentration of 200 mg/L and maintained in 5% CO2 at 37° C.
The assay employs real-time qPCR (TaqMan) to directly measure extracellular HBV DNA copy number in the cell supernatant. HepG2.2.15 cells were plated in 96-well microtiter plates before treatment with complete medium (DMEM, Glutamax, 10% FBS, 1% Penicillin/Streptomycin, 250 μg/mL Genetycin, final DMSO concentration is 1%/o). Only the interior wells were utilized to reduce “edge effects” observed during cell culture, the exterior wells were filled with complete medium to help minimize sample evaporation. The HepG2.2.15 cells were treated 1 h later with various concentrations of a test compound in duplicate (top concentration used at 5 μM, 2 μM or 0.5 μM according to the HBsAg IC50 observed, with ⅓ successive dilutions (total of 10 dilutions). Six days following the initial administration of the test compound, the cell culture supernatant was collected; DNA extraction was performed by automated system (Magnapure) and then used in a real-time qPCR/TaqMan assay to determine HBV DNA copy numbers. Antiviral activity was calculated from the reduction in HBV DNA levels (IC50).
The compounds of the present invention were tested for their capacity to inhibit HBV DNA as described herein.

[1] = Hepatitis B virus, HepG2.2.15, HBsAg secretion

| SMILES | IC50 (HBsAg; [1]) [nM] | IC50 (HBV DNA) [nM] | IC50 (HBsAg; HBsAg secretion) [nM] |
| --- | --- | --- | --- |
| CCS(=O)(=O)N1CCN(c2cc(F)nc(N3CCc4nc(-c5ncccn5)ncc4C3C)c2)CC1 (stereo not shown) [Example 90, 6-[4-(4-ethylsulfonylpiperazin-1-yl)-6-fluoro-2-pyridyl]-5-methyl-2-pyrimidin-2-yl-7,8-dihydro-5H-pyrido[4,3-d]pyrimidine] | 5 | 1.1 |  |
| C[C@@H]1c2cnc(-c3ncccn3)nc2CCN1c1cc(N2CCN(S(C)(=O)=O)CC2)cc(F)n1 [Example 97, (−)-6-[6-Fluoro-4-(4-methylsulfonylpiperazin-1-yl)-2-pyridyl]-5-methyl-2-pyrimidin-2-yl-7,8-dihydro-5H-pyrido[4,3-d]pyrimidine] |  | 1.9 | 3 |
| COC1CN(c2cc(F)nc(N3CCc4nc(-c5ncccn5)ncc4C3C)c2)C1 (stereo not shown) [Example 112, 6-[6-fluoro-4-(3-methoxyazetidin-1-yl)-2-pyridyl]-5-methyl-2-pyrimidin-2-yl-7,8-dihydro-5H-pyrido[4,3-d]pyrimidine] | 6 | 0.6 |  |
| CC1c2cnc(-c3ncccn3)nc2CCN1c1cc(N2CCCS2(=O)=O)cc(F)n1 (stereo not shown) [Example 115, 2-[2-Fluoro-6-(5-methyl-2-pyrimidin-2-yl-7,8-dihydro-5H-pyrido[4,3-d]pyrimidin-6-yl)-4-pyridyl]-1,2-thiazolidine1,1-dioxide] | 4 | 3.2 |  |
| CC1c2cnc(-c3ncccn3)nc2CCN1c1cc(N2CC(F)C2)cc(F)n1 (stereo not shown) [Example 123, 6-[6-fluoro-4-(3-fluoroazetidin-1-yl)-2-pyridyl]-5-methyl-2-pyrimidin-2-yl-7,8-dihydro-5H-pyrido[4,3-d]pyrimidine] | 12 | 0.43 |  |
